Source: patent US10752587B2, “Homobispiperidinyl derivatives as liver X receptor beta agonists, compositions and their use” (Merck Sharp & Dohme Corp., priority 2015, dated 2020)
Read-outs that look alike come from different tables or passages of the source.

What was measured:
[1] = target: T1, glutathione-S-transferase (GST) tagged LXRbeta LBD (ligand binding domain) (Homo sapiens, UniProt P55055); experiment: LanthaScreen TR-FRET Liver X Receptor Coactivator Assay, co-activator recruitment to LXRbeta LBD; type: biochemical; details: for EC50: potency (Inflection Point, IP), co-activator recruitment to LXRbeta LBD, in relation to T0901317; for Emax: read-out: LXR beta Activity @ max dose (%)
T1 construct: purchased Invitrogen pv4658.pps
T1 sequence (P55055 222-460 limits assumed): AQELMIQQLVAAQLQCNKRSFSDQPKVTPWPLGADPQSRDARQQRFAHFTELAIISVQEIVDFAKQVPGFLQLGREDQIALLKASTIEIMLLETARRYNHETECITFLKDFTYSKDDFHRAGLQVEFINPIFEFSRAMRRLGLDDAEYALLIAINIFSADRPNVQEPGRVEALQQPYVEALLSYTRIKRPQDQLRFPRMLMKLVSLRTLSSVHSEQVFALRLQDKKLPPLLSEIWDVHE
Procedure, shortened: (§1)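 GST-tagged LBD added to test compound, then fluorescein-labelled coactivator peptide plus terbium anti-GST antibody; incubated at room temperature, TR-FRET read. Potency given as inflection point and efficacy as Emax relative to reference dual agonist T0901317.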

[2] = target: T2, glutathione-S-transferase (GST) tagged LXRalpha LBD (ligand binding domain) (Homo sapiens, UniProt Q13133); experiment: LanthaScreen TR-FRET Liver X Receptor Coactivator Assay, co-activator recruitment to LXRalpha LBD; type: biochemical; details: for EC50 / LXR alpha IP (nM): potency (Inflection Point, IP), co-activator recruitment to LXRalpha LBD, in relation to T0901317; for Emax: read-out: LXR alpha Activity @ max dose (%)
T2 construct: purchased Invitrogen pv4655
T2 sequence (Q13133 209-447 limits assumed): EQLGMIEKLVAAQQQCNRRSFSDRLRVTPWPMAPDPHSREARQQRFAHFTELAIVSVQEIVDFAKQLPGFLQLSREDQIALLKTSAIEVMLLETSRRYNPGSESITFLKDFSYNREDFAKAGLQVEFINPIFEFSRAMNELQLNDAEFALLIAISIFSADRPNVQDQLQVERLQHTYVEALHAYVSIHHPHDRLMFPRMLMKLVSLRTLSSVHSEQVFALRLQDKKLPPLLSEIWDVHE
Procedure, shortened: as §1

[3] = efficacy at max dose, in relation to reference dual agonist T0901317

| SMILES | Emax [1, 3] [%] | EC50 ([1]; read-out: LXR beta IP) [nM] | Emax [2, 3] [%] | EC50 ([2]; read-out: LXR alpha IP) [nM] | LXR beta Activity @ max dose (%) [1, 3] [%] | LXR alpha Activity @ max dose (%) [2, 3] [%] | LXR alpha IP (nM) [2] | EC50 ([1]; LXR beta IP (nM)) [nM] | Emax [1] [%] | EC50 ([2]; LXR alpha IP (nM)) [nM] | Emax [2] [%] |
| --- | --- | --- | --- | --- | --- | --- | --- | --- | --- | --- | --- |
| CN(C)C(=O)c1ccc(N2CCC(CC3CCN(C(=O)C(O)(c4ccccc4)C4CC4)CC3)CC2)nc1Cl (stereo not drawn) [Example 7-99, 2-chloro-6-[4-({1-[cyclopropyl(hydroxy)phenylacetyl]piperidin-4-yl}methyl)piperidin-1-yl]-N,N-dimethylpyridine-3-carboxamide] |  |  |  |  |  |  |  | 48 | 74 | 2790 | 20 |
| COc1cccc([C@@](O)(C(=O)N2CCC(CC3CCN(c4ccc(C(=O)N(C)C)cc4)CC3)CC2)C(F)(F)F)c1 [Example 2-132, N,N-dimethyl-4-[4-({1-[(2R)-3,3,3-trifluoro-2-hydroxy-2-(3-methoxyphenyl)propanoyl]piperidin-4-yl}methyl)piperidin-1-yl]benzamide] |  | 51 |  |  | 49 | 7 | NO IP |  |  |  |  |
| CN(C)C(=O)c1ccc(N2CCC(CC3CCN(C(=O)[C@](O)(c4cccc(OC(F)F)c4)C(F)(F)F)CC3)CC2)nc1Cl [Example 7-115, 2-chloro-6-{4-[(1-{(2R)-2-[3-(difluoromethoxy)phenyl]-3,3,3-trifluoro-2-hydroxypropanoyl}piperidin-4-yl)methyl]piperidin-1-yl}-N,N-dimethylpyridine-3-carboxamide] | 60 | 5 | 17 | 251 |  |  |  |  |  |  |  |
| CC(C)Oc1cccc([C@@](O)(C(=O)N2CCC(CC3CCN(c4ccc(C(=O)N(C)C)c(Cl)n4)CC3)CC2)C(F)(F)F)c1 [Example 7-91, 2-chloro-N,N-dimethyl-6-{4-[(1-{(2R)-3,3,3-trifluoro-2-hydroxy-2-[3-(1-methylethoxy)phenyl]propanoyl}piperidin-4-yl)methyl]piperidin-1-yl}pyridine-3-carboxamide] | 58 | 8 | 14 |  |  |  | NO IP |  |  |  |  |
| COc1cccc([C@@](O)(C(=O)N2CC(CC3CCN(c4ccc(C(=O)N(C)C)c(C)n4)CC3)C2)C(F)(F)F)c1 [Example 7-10, N,N,2-trimethyl-6-[4-({1-[(2R)-3,3,3-trifluoro-2-hydroxy-2-(3-methoxyphenyl)propanoyl]azetidin-3-yl}methyl)piperidin-1-yl]pyridine-3-carboxamide] | 77 | 136 | 28 | 20 |  |  |  |  |  |  |  |
| CCc1cccc([C@@](O)(C(=O)N2CCC(C)(CC3CCN(c4ccc(C(=O)N(C)C)c(Cl)n4)CC3)CC2)C(F)(F)F)c1 [Example 7-49, 2-chloro-6-[4-({1-[(2R)-2-(3-ethylphenyl)-3,3,3-trifluoro-2-hydroxypropanoyl]-4-methylpiperidin-4-yl}methyl)piperidin-1-yl]-N,N-dimethylpyridine-3-carboxamide] | 40 | 6 | 8 |  |  |  | NO IP |  |  |  |  |
| CN(C)C(=O)c1ccc(N2CCC(CC3CCN(C(=O)[C@](N)(c4ccccc4)C(F)(F)F)CC3)CC2)cc1Cl (stereo in doubt) [Example 2-101, 4-[4-({1-[2-amino-3,3,3-trifluoro-2-phenyl-propanoyl]piperidin-4-yl}methyl)piperidin-1-yl]-2-chloro-N,N-dimethyl-benzamide] | 106 | 114 | 21 | 1770 |  |  |  |  |  |  |  |
| COc1cccc([C@@](O)(C(=O)N2CCC(CC3CN(c4ccc(C(=O)N(C)C)c(C)n4)C3)CC2)C(F)(F)F)c1 [Example 7-13, N,N,2-trimethyl-6-[3-({1-[(2R)-3,3,3-trifluoro-2-hydroxy-2-(3-methoxyphenyl)propanoyl]piperidin-4-yl}methyl)azetidin-1-yl]pyridine-3-carboxamide] | 72 | 1150 | 4 |  |  |  | NO IP |  |  |  |  |
| CN(C)C(=O)c1ccc(N2CCN(CC3CCN(C(=O)[C@](O)(c4ccccc4)C(F)(F)F)CC3)CC2)cc1Cl [Example 6-1, 2-chloro-N,N-dimethyl-4-[4-({1-[(2R)-3,3,3-trifluoro-2-hydroxy-2-phenylpropanoyl]piperidin-4-yl}methyl)piperazin-1-yl]benzamide] |  | 84 | 29 | 9030 |  |  |  |  | 60 |  |  |
| COc1cccc([C@@](O)(C(=O)N2CCC(CC3CCN(c4ccc(C(=O)N(C)C)c(C5CC5)n4)CC3)CC2)C(F)(F)F)c1 [Example 7-11, 2-cyclopropyl-N,N-dimethyl-6-[4-({1-[(2R)-3,3,3-trifluoro-2-hydroxy-2-(3-methoxyphenyl)propanoyl]piperidin-4-yl}methyl)piperidin-1-yl]pyridine-3-carboxamide] | 73 | 19 | 8 |  |  |  | NO IP |  |  |  |  |
| COc1cccc([C@](N)(C(=O)N2CCC(CC3CCN(c4ccc(C(=O)N(C)C)c(Cl)c4)CC3)CC2)C(F)(F)F)c1 [Example 2-119, 4-[4-({1-[(2S)-2-amino-3,3,3-trifluoro-2-(3-methoxy-phenyl)propanoyl]piperidin-4-yl}methyl)piperidin-1-yl]-2-chloro-N,N-dimethyl-benzamide] | 99 | 208 | 11 |  |  |  | NO IP |  |  |  |  |

Continued, in another order:

| Emax [1, 3] [%] | EC50 ([1]; read-out: LXR beta IP) [nM] | Emax [2, 3] [%] | EC50 ([2]; read-out: LXR alpha IP) [nM] | LXR beta Activity @ max dose (%) [1, 3] [%] | LXR alpha Activity @ max dose (%) [2, 3] [%] | LXR alpha IP (nM) [2] | SMILES | EC50 ([1]; LXR beta IP (nM)) [nM] | Emax [1] [%] | EC50 ([2]; LXR alpha IP (nM)) [nM] | Emax [2] [%] |
| --- | --- | --- | --- | --- | --- | --- | --- | --- | --- | --- | --- |
| 83 | 7 | 38 | 140 |  |  |  | CN(C)C(=O)c1ccc(N2CCC(CC3CCN(C(=O)[C@](O)(c4cccc(F)c4)C(F)(F)F)CC3)CC2)cc1Cl [Example 2-84, 2-chloro-N,N-dimethyl-4-[4-({1-[(2R)-3,3,3-trifluoro-2-(3-fluoro-phenyl)-2-hydroxy-propanoyl]piperidin-4-yl}methyl)piperidin-1-yl]benzamide] |  |  |  |  |
| 20 | 15 | 0 |  |  |  | NO IP | CCc1cccc([C@@](O)(C(=O)N2CCC(C)(CC3CCN(c4ccc(C(=O)N(C)C)c(Cl)c4)CC3)CC2)C(F)(F)F)c1 [Example 2-52, 2-chloro-4-[4-({1-[(2R)-2-(3-ethyl-phenyl)-3,3,3-trifluoro-2-hydroxy-propanoyl]-4-methyl-piperidin-4-yl}methyl)piperidin-1-yl]-N,N-dimethyl-benzamide] |  |  |  |  |
| 120 | 91 | 50 | 3790 |  |  |  | CNC(=O)c1ccc(N2CCC(OC3CCN(C(=O)C(O)(c4cccc(F)c4)C(F)(F)F)CC3)CC2)cc1Cl (stereo not drawn) [Example 7-30, 2-chloro-N-methyl-4-[4-({1-[3,3,3-trifluoro-2-(3-fluorophenyl)-2-hydroxypropanoyl]piperidin-4-yl}oxy)piperidin-1-yl] benzamide] |  |  |  |  |
| 81 | 2 | 36 | 29 |  |  |  | CN(C)C(=O)c1ccc(N2CCC(CC3CCN(C(=O)[C@](O)(c4cc(F)cc(Cl)c4)C(F)(F)F)CC3)CC2)cc1Cl [Example 2-102, 2-chloro-4-[4-({1-[(2R)-2-(3-chloro-5-fluorophenyl)-3,3,3-trifluoro-2-hydroxy-propanoyl]piperidin-4-yl}methyl)piperidin-1-yl]-N,N-dimethyl-benzamide] |  |  |  |  |
| 52 | 19 | 7 |  |  |  | NO IP | Cc1cc(N2CCC(CC3CCN(C(=O)[C@](O)(c4cccc(OC(C)C)c4)C(F)(F)F)CC3)CC2)ccc1C(=O)N(C)C [Example 2-147, N,N,2-trimethyl-4-{4-[(1-{(2R)-3,3,3-trifluoro-2-hydroxy-2-[3-(1-methylethoxy)phenyl]propanoyl}piperidin-4-yl)methyl]piperidin-1-yl}benzamide] |  |  |  |  |
| 92 | 184 | 18 | 4240 |  |  |  | CNC(=O)c1ccc(N2CCC(OC3CCN(C(=O)C(O)(c4cccc(OC)c4)C(F)(F)F)CC3)CC2)cc1Cl (stereo not drawn) [Example 7-32, 2-chloro-N-methyl-4-[4-({1-[3,3,3-trifluoro-2-hydroxy-2-(3-methoxyphenyl)propanoyl]piperidin-4-yl}oxy)piperidin-1-yl]benzamide] |  |  |  |  |
| 54 | 20 | 14 |  |  |  | NO IP | Cc1cc(N2CCC(CC3CCN(C(=O)[C@](O)(c4cccc(C(C)C)c4)C(F)(F)F)CC3)CC2)ccc1C(=O)N(C)C [Example 2-149, N,N,2-trimethyl-4-{4-[(1-{(2R)-3,3,3-trifluoro-2-hydroxy-2-[3-(1-methyl-ethyl)phenyl]propanoyl}piperidin-4-yl)methyl]piperidin-1-yl}benzamide] |  |  |  |  |
